# The source made the active and inactive calls. No cut-off for these calls is given here.
# Legend:
# [1] = molecular target: T1, Serine/threonine-protein kinase ATR (Homo sapiens, UniProt Q13535); type: cell-based, HT-29
# [2] = molecular target: T1, Serine/threonine-protein kinase ATR
# [3] = Aqueous solubility of the compound at pH 7.4; type: physicochemical; details: buffer
# LoVo [4] = experiment: Antitumor activity against human LoVo cells xenografted in Swiss nu/nu mouse assessed as tumor growth inhibition at 50 mg/kg, po qd for 13 days relative to control; type: functional, organism-based; design: dose 50 mg/kg
# LoVo [5] = experiment: Antitumor activity against human LoVo cells xenografted in Swiss nu/nu mouse assessed as tumor growth inhibition at 25 mg/kg, po bid for 13 days relative to control; type: functional, organism-based; design: dose 25 mg/kg
# [6] = molecular target: T2, Phosphatidylinositol 4,5-bisphosphate 3-kinase catalytic subunit alpha isoform (Homo sapiens, UniProt P42336); experiment: Inhibition of PI3Kalpha (unknown origin) assessed as residual activity at 1 uM
# [7] = molecular target: T3, Serine/threonine-protein kinase mTOR (Homo sapiens, UniProt P42345); experiment: Inhibition of recombinant mTOR (unknown origin) assessed as residual activity at 1 uM
# [8] = Oral bioavailability in Han-Wistar rat at 4 umol/kg; type: ADME, organism-based; details: in vivo
# [9] = Apparent permeability from apical to basolateral side in human Caco2 cells at 10 uM at pH 6.5; type: ADME, cell-based; details: Caco-2, pH 6.5
# physchem = details: octanol/buffer, pH 7.4
# [10] = Fraction unbound in rat plasma; type: ADME, cell-free
# [11] = Bioavailability in rat; type: ADME, organism-based; details: in vivo
# [12] = Plasma clearance in rat; type: ADME, organism-based
# [13] = Volume of distribution in rat; type: ADME, organism-based; details: in vivo
# [14] = AUC in Han-Wistar rat at 4 umol/kg, po; type: ADME, organism-based; details: plasma
# [15] = Solubility of the compound in phosphate buffer after 24 hrs at pH 7.4 by LC-UV-MS analysis; type: physicochemical
# [16] = molecular target: T3, Serine/threonine-protein kinase mTOR; experiment: Inhibition of mTOR-mediated AKT phosphorylation at serine 473 in human MDA-MB-468 cells; type: cell-based
# [17] = molecular target: T2, Phosphatidylinositol 4,5-bisphosphate 3-kinase catalytic subunit alpha isoform; experiment: Inhibition of PI3Kalpha (unknown origin)
# in vitro = details: rat, hepatocytes
# [18] = molecular target: Voltage-gated inwardly rectifying potassium channel KCNH2 (Homo sapiens, UniProt Q12809)
# [19] = molecular target: DNA-dependent protein kinase catalytic subunit (Homo sapiens, UniProt P78527); experiment: Inhibition of DNA-PK (unknown origin)
# [20] = molecular target: T3, Serine/threonine-protein kinase mTOR; experiment: Inhibition of recombinant mTOR (unknown origin)
# [21] = Dissociation constant, pKa of the compound; type: physicochemical
# T2 sequence (P42336 whole entry, canonical isoform): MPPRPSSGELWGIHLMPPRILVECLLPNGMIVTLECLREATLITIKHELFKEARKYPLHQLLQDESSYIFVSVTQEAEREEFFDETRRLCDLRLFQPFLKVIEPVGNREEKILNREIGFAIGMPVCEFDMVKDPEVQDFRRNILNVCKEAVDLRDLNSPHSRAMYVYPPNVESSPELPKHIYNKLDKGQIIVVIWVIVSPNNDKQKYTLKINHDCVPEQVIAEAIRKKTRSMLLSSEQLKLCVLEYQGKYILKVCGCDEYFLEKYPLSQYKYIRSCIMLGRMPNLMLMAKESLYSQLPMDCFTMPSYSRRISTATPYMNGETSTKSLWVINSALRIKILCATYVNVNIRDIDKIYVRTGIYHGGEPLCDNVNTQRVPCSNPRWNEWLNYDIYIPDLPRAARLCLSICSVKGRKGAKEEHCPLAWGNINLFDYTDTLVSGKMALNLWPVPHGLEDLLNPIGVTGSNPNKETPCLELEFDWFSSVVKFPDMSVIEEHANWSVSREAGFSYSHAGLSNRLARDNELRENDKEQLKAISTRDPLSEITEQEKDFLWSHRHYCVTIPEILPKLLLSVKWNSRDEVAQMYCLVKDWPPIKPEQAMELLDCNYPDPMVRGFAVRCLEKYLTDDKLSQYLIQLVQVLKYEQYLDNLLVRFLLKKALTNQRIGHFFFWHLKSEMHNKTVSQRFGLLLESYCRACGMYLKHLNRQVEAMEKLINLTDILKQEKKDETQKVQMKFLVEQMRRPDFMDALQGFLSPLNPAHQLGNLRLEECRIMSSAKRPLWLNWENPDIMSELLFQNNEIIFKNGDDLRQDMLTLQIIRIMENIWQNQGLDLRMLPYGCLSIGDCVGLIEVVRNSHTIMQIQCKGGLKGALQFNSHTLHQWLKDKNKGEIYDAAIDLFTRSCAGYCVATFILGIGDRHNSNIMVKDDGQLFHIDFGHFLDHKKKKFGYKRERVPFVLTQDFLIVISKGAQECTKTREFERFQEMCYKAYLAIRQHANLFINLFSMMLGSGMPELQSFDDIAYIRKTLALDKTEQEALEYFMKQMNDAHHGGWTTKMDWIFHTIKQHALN
# T1 sequence (Q13535 whole entry): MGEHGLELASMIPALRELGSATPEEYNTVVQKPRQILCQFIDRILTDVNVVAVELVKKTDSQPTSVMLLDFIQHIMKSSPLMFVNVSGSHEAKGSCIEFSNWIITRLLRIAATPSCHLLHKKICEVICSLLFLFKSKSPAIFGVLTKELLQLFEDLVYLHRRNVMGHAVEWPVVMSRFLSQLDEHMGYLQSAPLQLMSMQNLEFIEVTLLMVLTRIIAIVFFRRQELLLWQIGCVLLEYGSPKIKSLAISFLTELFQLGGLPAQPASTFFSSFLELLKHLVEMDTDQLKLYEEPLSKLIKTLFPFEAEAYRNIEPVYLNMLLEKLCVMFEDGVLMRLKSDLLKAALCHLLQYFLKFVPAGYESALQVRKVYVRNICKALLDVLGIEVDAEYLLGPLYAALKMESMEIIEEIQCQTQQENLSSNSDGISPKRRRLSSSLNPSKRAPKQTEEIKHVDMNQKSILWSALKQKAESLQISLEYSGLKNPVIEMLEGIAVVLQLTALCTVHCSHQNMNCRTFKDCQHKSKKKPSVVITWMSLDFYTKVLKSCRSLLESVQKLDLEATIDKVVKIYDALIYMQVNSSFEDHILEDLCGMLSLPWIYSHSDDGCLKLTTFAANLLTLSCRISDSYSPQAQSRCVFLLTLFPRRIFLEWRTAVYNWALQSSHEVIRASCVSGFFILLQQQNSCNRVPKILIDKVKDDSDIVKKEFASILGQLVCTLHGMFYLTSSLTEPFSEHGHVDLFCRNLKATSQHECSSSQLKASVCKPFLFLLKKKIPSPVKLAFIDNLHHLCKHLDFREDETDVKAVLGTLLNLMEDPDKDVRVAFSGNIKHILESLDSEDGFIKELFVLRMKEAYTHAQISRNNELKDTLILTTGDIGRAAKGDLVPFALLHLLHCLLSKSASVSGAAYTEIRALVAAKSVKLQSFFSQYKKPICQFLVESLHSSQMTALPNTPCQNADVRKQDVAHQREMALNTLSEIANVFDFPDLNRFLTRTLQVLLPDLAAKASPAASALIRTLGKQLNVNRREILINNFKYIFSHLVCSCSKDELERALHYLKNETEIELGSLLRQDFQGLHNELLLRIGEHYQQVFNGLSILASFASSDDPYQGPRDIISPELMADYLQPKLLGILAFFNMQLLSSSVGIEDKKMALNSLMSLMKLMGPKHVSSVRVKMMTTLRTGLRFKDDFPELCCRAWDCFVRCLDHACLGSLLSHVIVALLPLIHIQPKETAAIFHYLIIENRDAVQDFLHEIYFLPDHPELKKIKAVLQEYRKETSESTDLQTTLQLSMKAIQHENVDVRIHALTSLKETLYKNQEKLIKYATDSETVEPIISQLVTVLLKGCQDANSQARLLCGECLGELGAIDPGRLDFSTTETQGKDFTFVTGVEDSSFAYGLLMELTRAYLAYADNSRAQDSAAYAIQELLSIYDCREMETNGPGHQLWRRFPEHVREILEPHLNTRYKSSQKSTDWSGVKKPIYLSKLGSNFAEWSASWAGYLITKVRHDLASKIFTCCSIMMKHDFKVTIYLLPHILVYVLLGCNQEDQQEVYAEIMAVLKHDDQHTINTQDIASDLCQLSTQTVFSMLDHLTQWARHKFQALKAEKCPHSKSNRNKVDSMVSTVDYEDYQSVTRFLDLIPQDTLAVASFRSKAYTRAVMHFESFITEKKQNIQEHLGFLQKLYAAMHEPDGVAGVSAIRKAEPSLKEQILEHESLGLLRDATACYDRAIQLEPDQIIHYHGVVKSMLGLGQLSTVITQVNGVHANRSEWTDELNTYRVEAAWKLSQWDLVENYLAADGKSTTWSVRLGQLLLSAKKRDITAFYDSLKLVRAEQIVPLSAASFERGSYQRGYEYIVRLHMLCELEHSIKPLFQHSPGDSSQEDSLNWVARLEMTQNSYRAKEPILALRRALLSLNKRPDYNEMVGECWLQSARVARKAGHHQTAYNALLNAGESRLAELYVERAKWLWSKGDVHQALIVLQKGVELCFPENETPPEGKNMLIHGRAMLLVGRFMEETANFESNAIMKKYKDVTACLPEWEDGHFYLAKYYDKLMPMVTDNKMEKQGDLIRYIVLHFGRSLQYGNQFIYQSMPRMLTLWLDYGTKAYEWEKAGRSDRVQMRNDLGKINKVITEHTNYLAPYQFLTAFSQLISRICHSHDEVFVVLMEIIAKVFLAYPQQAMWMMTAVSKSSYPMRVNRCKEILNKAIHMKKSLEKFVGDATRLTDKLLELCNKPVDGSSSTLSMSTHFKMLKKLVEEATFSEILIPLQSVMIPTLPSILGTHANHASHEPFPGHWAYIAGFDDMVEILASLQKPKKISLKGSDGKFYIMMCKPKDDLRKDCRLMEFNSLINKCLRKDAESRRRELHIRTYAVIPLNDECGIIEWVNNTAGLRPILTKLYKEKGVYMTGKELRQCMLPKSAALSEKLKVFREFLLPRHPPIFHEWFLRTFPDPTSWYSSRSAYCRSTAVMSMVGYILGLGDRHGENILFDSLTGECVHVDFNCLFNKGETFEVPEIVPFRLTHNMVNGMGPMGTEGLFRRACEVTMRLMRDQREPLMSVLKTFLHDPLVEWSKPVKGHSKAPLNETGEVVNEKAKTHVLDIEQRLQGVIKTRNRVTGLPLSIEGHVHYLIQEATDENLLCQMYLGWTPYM
# Chain of Voltage-gated inwardly rectifying potassium channel KCNH2 (Q12809 whole entry): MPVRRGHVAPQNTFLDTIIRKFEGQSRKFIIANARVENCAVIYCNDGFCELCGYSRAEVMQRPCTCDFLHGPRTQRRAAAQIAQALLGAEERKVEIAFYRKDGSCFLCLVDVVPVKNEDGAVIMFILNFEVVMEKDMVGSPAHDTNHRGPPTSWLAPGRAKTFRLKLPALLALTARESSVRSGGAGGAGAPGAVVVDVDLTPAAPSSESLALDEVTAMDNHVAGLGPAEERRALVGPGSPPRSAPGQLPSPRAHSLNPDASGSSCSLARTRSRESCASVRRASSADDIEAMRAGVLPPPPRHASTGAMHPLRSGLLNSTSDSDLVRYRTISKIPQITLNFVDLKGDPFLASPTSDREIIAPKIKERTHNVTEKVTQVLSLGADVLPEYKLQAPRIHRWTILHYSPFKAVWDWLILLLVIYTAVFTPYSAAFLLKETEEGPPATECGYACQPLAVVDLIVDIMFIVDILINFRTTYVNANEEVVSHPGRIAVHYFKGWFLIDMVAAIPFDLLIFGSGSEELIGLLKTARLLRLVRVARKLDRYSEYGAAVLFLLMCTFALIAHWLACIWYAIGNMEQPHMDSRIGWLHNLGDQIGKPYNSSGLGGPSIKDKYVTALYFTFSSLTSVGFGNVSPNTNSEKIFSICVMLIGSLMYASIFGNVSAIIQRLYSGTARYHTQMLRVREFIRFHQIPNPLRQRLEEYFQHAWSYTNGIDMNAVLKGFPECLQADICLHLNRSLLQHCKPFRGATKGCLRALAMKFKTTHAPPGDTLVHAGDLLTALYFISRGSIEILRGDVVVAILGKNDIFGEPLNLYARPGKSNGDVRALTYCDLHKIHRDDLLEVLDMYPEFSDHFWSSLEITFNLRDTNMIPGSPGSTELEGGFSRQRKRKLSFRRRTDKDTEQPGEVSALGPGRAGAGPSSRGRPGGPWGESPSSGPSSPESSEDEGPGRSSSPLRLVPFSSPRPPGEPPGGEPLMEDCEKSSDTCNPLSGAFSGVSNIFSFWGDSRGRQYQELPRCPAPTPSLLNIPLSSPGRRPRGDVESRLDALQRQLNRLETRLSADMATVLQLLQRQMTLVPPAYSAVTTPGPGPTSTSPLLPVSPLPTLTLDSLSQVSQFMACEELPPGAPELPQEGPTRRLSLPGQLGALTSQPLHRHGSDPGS
structure (smiles),measurement,setting,value
O=S(=O)(c1ccccc1)C1(c2cc(N3CCOCC3)nc(-c3cccc4[nH]ccc34)n2)CC1,IC50,[1],590 nM
same,IC50,[2],5 nM
CS(=O)(=O)C1(c2cc(N3CCOCC3)nc(-c3cccc(N)c3)n2)CC1,IC50,[1],> 30000 nM
same,IC50,[2],1200 nM
CS(=O)(=O)C1(c2cc(N3CCOCC3)nc(-c3cc(C(N)=O)cc4[nH]ccc34)n2)CC1,IC50,[1],9200 nM
same,IC50,[2],41 nM
Cc1ccc2[nH]ccc2c1-c1nc(N2CCOCC2)cc(C2(S(C)(=O)=O)CC2)n1,solubility,[3],96 µM
same,IC50,[1],> 30000 nM
C[C@@H]1COCCN1c1cc(C2(S(C)(=O)=O)CC2)nc(-c2cccc3[nH]ccc23)n1,TGI,LoVo [4],Active
same,TGI,LoVo [5],Active
same,Activity,[6],< 50%
same,Activity,[7],< 50%
same,bioavailability,[8],62%
same,Papp A→B at 10 µM,[9],23 ×10⁻⁶ cm/s
same,logD,physchem,2.7
CS(=O)(=O)C1(c2cc(N3CCOCC3)nc(-c3cccc4[nH]ccc34)n2)CC1,fraction unbound,[10],0.23
same,bioavailability,[11],70%
same,clearance,[12],15 mL/min/kg
same,Vd,[13],2.1 L/kg
same,AUC,[14],3.1 µM·h
same,Papp A→B at 10 µM,[9],21 ×10⁻⁶ cm/s
same,solubility at 24 h,[15],4.4 µM
same,IC50,[16],3200 nM
same,IC50,[17],940 nM
same,hepatocyte CLint at 1 µM,in vitro,< 3 µL/min/1e6 cells
same,logD,physchem,2.2
CS(=O)(=O)C1(c2cc(N3CCOCC3)nc(-c3cccc4[nH]c(C(N)=O)cc34)n2)CC1,IC50,[1],> 30000 nM
same,IC50,[2],1100 nM
CS(=O)(=O)C1(c2cc(N3CCOCC3)nc(-c3cccc4[nH]ccc34)n2)CCOCC1,fraction unbound,[10],0.25
same,AUC,[14],0.32 µM·h
same,Papp A→B at 10 µM,[9],28 ×10⁻⁶ cm/s
same,solubility at 24 h,[15],1.8 µM
same,IC50,[16],3300 nM
same,IC50,[1],180 nM
same,IC50,[17],1400 nM
same,IC50,[18],> 33000 nM
same,IC50,[2],4 nM
same,hepatocyte CLint at 1 µM,in vitro,23 µL/min/1e6 cells
same,logD,physchem,2.4
CS(=O)(=O)Cc1cc(N2CCOCC2)nc(-c2cccc3[nH]ccc23)n1,IC50,[16],5900 nM
same,IC50,[1],1100 nM
same,IC50,[19],2700 nM
same,IC50,[17],3800 nM
same,IC50,[20],330 nM
same,IC50,[2],30 nM
same,logD,physchem,1.7
Cc1ccc(-c2nc(N3CCOCC3)cc(C3(S(C)(=O)=O)CC3)n2)c2cc[nH]c12,IC50,[1],6300 nM
same,IC50,[2],220 nM
Cc1c[nH]c2cccc(-c3nc(N4CCOCC4)cc(C4(S(C)(=O)=O)CC4)n3)c12,IC50,[1],> 30000 nM
same,IC50,[2],14000 nM
C[C@H]1COCCN1c1cc(C2(S(C)(=O)=O)CC2)nc(-c2cccc3[nH]ccc23)n1,logD,physchem,2.8
CC(C)S(=O)(=O)C1(c2cc(N3CCOCC3)nc(-c3cccc4[nH]ccc34)n2)CC1,IC50,[1],770 nM
same,IC50,[2],13 nM
Cn1ccc2c(-c3nc(CS(C)(=O)=O)cc(N4CCOCC4)n3)cccc21,IC50,[1],> 30000 nM
same,IC50,[2],3300 nM
Cc1cc2c(-c3nc(N4CCOCC4)cc(C4(S(C)(=O)=O)CC4)n3)cccc2[nH]1,IC50,[1],2500 nM
same,IC50,[2],28 nM
CS(=O)(=O)C1(c2cc(N3CCOCC3)nc(-c3cc(C#N)cc4[nH]ccc34)n2)CC1,IC50,[1],1500 nM
O=S(=O)(C1CCOCC1)C1(c2cc(N3CCOCC3)nc(-c3cccc4[nH]ccc34)n2)CC1,IC50,[1],2800 nM
same,IC50,[2],33 nM
CS(=O)(=O)C1(c2cc(N3CCOCC3)nc(-c3cccc4[nH]c(C#N)cc34)n2)CC1,IC50,[1],7200 nM
same,IC50,[2],300 nM
O=S(=O)(c1ccccn1)C1(c2cc(N3CCOCC3)nc(-c3cccc4[nH]ccc34)n2)CC1,IC50,[1],2000 nM
same,IC50,[2],33 nM
Cc1cc(-c2nc(N3CCOCC3)cc(C3(S(C)(=O)=O)CC3)n2)c2cc[nH]c2c1,IC50,[1],490 nM
same,IC50,[2],8 nM
CS(=O)(=O)Cc1cc(N2CCOCC2)nc(-c2ccc3cc[nH]c3c2)n1,IC50,[1],> 30000 nM
same,IC50,[2],1500 nM
CN1CCC(c2cc(N3CCOCC3)nc(-c3cccc4[nH]ccc34)n2)(S(C)(=O)=O)CC1,IC50,[1],3700 nM
same,IC50,[2],61 nM
same,logD,physchem,1.9
O=S(=O)(C1CCNCC1)C1(c2cc(N3CCOCC3)nc(-c3cccc4[nH]ccc34)n2)CC1,IC50,[1],2900 nM
same,IC50,[2],46 nM
CN(C)C(=O)c1cc(-c2nc(N3CCOCC3)cc(C3(S(C)(=O)=O)CC3)n2)c2cc[nH]c2c1,IC50,[1],24000 nM
same,IC50,[2],720 nM
CS(=O)(=O)C1(c2cc(N3CCOCC3)nc(-c3ccccc3)n2)CC1,IC50,[1],> 30000 nM
same,IC50,[2],360 nM
CS(=O)(=O)C1(c2cc(N3CCOCC3)nc(-c3cccc4[nH]ccc34)n2)CCNCC1,fraction unbound,[10],0.4
same,AUC,[14],0.04 µM·h
same,Papp A→B at 10 µM,[9],0.2 ×10⁻⁶ cm/s
same,solubility at 24 h,[15],230 µM
same,pKa,[21],8.8
same,IC50,[16],1500 nM
same,IC50,[1],420 nM
same,IC50,[17],2700 nM
same,IC50,[18],> 33000 nM
same,IC50,[2],9 nM
same,hepatocyte CLint at 1 µM,in vitro,9.4 µL/min/1e6 cells
same,logD,physchem,0.7
CS(=O)(=O)Cc1cc(N2CCOCC2)nc(-c2cccc3cc[nH]c23)n1,IC50,[1],> 30000 nM
same,IC50,[2],180 nM
CS(=O)(=O)Cc1cc(N2CCOCC2)nc(-c2ccc3[nH]ccc3c2)n1,IC50,[1],> 30000 nM
same,IC50,[2],1700 nM
CS(=O)(=O)C1(c2cc(N3CCOCC3)nc(-c3cccc4c3CC(=O)N4)n2)CC1,IC50,[1],16000 nM
same,IC50,[2],120 nM
CC[C@@H]1COCCN1c1cc(C2(S(C)(=O)=O)CC2)nc(-c2cccc3[nH]ccc23)n1,IC50,[1],4400 nM
same,IC50,[2],170 nM
same,logD,physchem,3
CS(=O)(=O)C1(c2cc(N3CCOCC3)nc(-c3cc(Cl)cc4[nH]ccc34)n2)CC1,IC50,[1],720 nM
same,IC50,[2],16 nM
CS(=O)(=O)C1(c2cc(N3CCOCC3)nc(-c3cccc4[nH]ncc34)n2)CC1,IC50,[1],13000 nM
same,IC50,[2],130 nM
CC(C)(c1cc(N2CCOCC2)nc(-c2cccc3[nH]ccc23)n1)S(C)(=O)=O,fraction unbound,[10],0.2
same,AUC,[14],0.76 µM·h
same,Papp A→B at 10 µM,[9],16 ×10⁻⁶ cm/s
same,solubility at 24 h,[15],< 0.4 µM
same,IC50,[16],2700 nM
same,IC50,[1],280 nM
same,IC50,[17],1600 nM
same,IC50,[20],190 nM
same,IC50,[2],3 nM
same,hepatocyte CLint at 1 µM,in vitro,41 µL/min/1e6 cells
same,logD,physchem,2.7
